The source of these data is US9890103B2, “Process for the production of (meth)acrylic acid and derivatives and polymers produced therefrom” (Lucite International UK Limited, priority 2011, dated 2018).

Series [1] can be described thus: Extraction of mono- and dibasic acids from 0.1M aqueous solution into toluene or MMA/toluene mixtures. It is filed as physicochemical. To be noted: for degree of extraction: equal volume, in %; for Fraction Transferred to Toluene: each acid 0.1M in water, equal volume of toluene. As for the experimental part: (§1) The following experimental conditions were used unless indicated otherwise:— • 0.1M Acids • 1:1 vol:vol aq:solvent • Room Temperature • 1 minutes agitation time; 5 min settling time • Solvent is toluene unless where stated • Analysis by HPLC
Monobasic and dibasic acids likely to be present in aqueous solution following partial decomposition of mono and dicarboxylic acids expected to be found from decomposition of dibasic or tribasic acids were compared for their solubility in toluene.
Each acid, initially at 0.1M solution in water was separately tested for solubility in an equal volume of toluene.
Aqueous solutions were prepared of each of the dicarboxylic acids exemplified in comparative example 2. These were extracted with an equal volume of solvent mixtures of toluene and methyl methacrylate (MMA).
In order to compare the solubilities in the organic solvents in terms of partition coefficients each sample was converted to a partition coefficient based on the equation: [MAA]solv=K[MAA]^2aq

Series [2] is described as follows: Extraction of acrylic and maleic acid into toluene/butanone mixtures. Type of series: physicochemical. To be noted: 0.1M aq solution, equal volume. As for the experimental part:
as §1
In order to increase the solubility of the AA in the organic layer a higher polarity is likely to be required. The extraction of a 0.1M aq AA solution was studied with an equal volume of a mixture between toluene and butanone.

The nature of series [3]: MAA extraction into 2-butanone/o-xylene 75:25. Type of series: physicochemical. To be noted: 2-butanone:o-xylene 75:25. The text has this: The efficiency of MAA extraction into a mixture of 2-butanone and o-xylene in the ratio 75:25 was studied.
Series [4] in a line: Concentration dependence of MAA extraction into toluene. Type of series: physicochemical. To be noted: toluene/water, fitted to table 3 data. The protocol: as §1
A series of different concentrations of MAA in aqueous solution were extracted into toluene (1:1 by volume vs aqueous solution).
The fraction transferred increases with the concentration of MAA. The data from table 3 were plotted according to the equation: [MAA]tol=K[MAA]^2aq and the value K in the equation was evaluated as 14.6. The results are plotted in FIG. 1.

Series [5] can be described thus: MAA extraction into toluene with added NaOH and added di/tricarboxylic acids. Type of series: physicochemical. To be noted: for amount of MAA transferred into toluene: 0.1M MAA aq, equivalent volume toluene. As for the experimental part: The following experimental conditions were used unless indicated otherwise:— • 0.1M Acids • 1:1 vol:vol aq:solvent • Room Temperature • 1 minutes agitation time; 5 min settling time • Solvent is toluene unless where stated • Analysis by HPLC […] The results are shown in the first two rows of table 5 […] Very similar results were obtained. […] The aqueous solution was extracted with an equal volume of toluene at room temperature.

For series [6] the following is noted: 2-butanone:o-xylene 75:25; reported maximum; cited from earlier work.
The nature of series [7]: Solvent screen: transfer of methacrylic acid from aqueous solution into organic solvents. Type of series: physicochemical. To be noted: 0.1M MAA aq, 1:1 vol:vol, room temperature. As for the experimental part:
as §1
A series of solvents were tested to examine the extent of transfer of methacrylic acid from an aqueous solution using the above procedure.

Setting [8] is: Fraction of MMA in MMA/Toluene solvent mixture 0.
Setting [9] is: Fraction of MMA in MMA/Toluene solvent mixture 0.1.
Setting [10] is: Fraction of MMA in MMA/Toluene solvent mixture 0.2.
The mark [11] stands for this setting: Fraction of MMA in MMA/Toluene solvent mixture 0.3.
[12] abbreviates: Fraction of MMA in MMA/Toluene solvent mixture 0.4.
Setting [13] is: Fraction of MMA in MMA/Toluene solvent mixture 0.5.
Setting [14] is: Fraction of MMA in MMA/Toluene solvent mixture 0.6.
The mark [15] stands for this setting: Fraction of MMA in MMA/Toluene solvent mixture 0.7.
Where [16] appears, read: Fraction of MMA in MMA/Toluene solvent mixture 0.8.
The mark [17] stands for this setting: Fraction of MMA in MMA/Toluene solvent mixture 0.9.
[18] abbreviates: Fraction of MMA in MMA/Toluene solvent mixture 1.

With `C/C=C/C(=O)O` [CT, Crotonic Acid], the degree of extraction in series [1] (setting [8]) was 40.11; in series [1] (setting [9]), 46.72; in series [1] (setting [10]), 49.88; in series [1] (setting [11]), 53.62; in series [1] (setting [12]) it was 56.56; in series [1] (setting [13]), 61.15. Besides, the degree of extraction in series [1] (setting [14]) is 64.67; in series [1] (setting [15]), 68.07; in series [1] (setting [16]), 70.86; in series [1] (setting [17]), 73.21; in series [1] (setting [18]), 75.05. Also, the “Fraction Transferred to Toluene” value in series [1] is listed as 40.11%.

On to `CC(=O)C(=O)O` [PY, Pyruvic Acid], for which the degree of extraction is on record as 0 in series [1] (setting [8]); 0 in series [1] (setting [9]); 0.3 in series [1] (setting [10]); 0.7 in series [1] (setting [11]); 1.17 in series [1] (setting [12]); 2.07 in series [1] (setting [13]). Besides, the degree of extraction in series [1] (setting [14]) is 3.01; in series [1] (setting [15]), 4.17; in series [1] (setting [16]) it was 5.57; in series [1] (setting [17]), 8.05; in series [1] (setting [18]), 10.71. The “Fraction Transferred to Toluene” value in series [1] is reported as 0%.

For `O=C(O)/C=C\C(=O)O` [Maleic acid], the “% extracted” value in series [2] (0 % Butanone in toluene) amounted to 0%; in series [2] (10 % Butanone in toluene) it was 0.32%; in series [2] (20 % Butanone in toluene) it was 1.46%; in series [2] (30 % Butanone in toluene), 3.41%; in series [2] (40 % Butanone in toluene) it was 5.19%; in series [2] (50 % Butanone in toluene), 10.62%. Further, the “% extracted” value in series [2] (60 % Butanone in toluene) amounted to 10.77%; in series [2] (70 % Butanone in toluene), 15.01%; in series [2] (80 % Butanone in toluene), 19.88%; in series [2] (90 % Butanone in toluene) it was 27.09%; in series [2] (100 % Butanone), 34.32%.

Turning to `CC(C)(O)C(=O)O` [HIB, Hydroxyisobutyric Acid], the degree of extraction in series [1] (setting [8]) came out at 4.21; in series [1] (setting [9]), 4.8; in series [1] (setting [10]) it was 5.14; in series [1] (setting [11]), 6.38; in series [1] (setting [12]), 4.82; in series [1] (setting [13]), 5.76. Further, the degree of extraction was found to be 7.32 in series [1] (setting [14]); 19.71 in series [1] (setting [15]); 21.47 in series [1] (setting [16]); 23.32 in series [1] (setting [17]); 23.9 in series [1] (setting [18]). Moreover, in series [1], the “Fraction Transferred to Toluene” value was 4.21%.

`C/C(=C\C(=O)O)C(=O)O` [MC, Mesaconic Acid]: the degree of extraction in series [1] (setting [8]) was 0.64; in series [1] (setting [9]), 1.72; in series [1] (setting [10]), 4.5; in series [1] (setting [11]), 8.26; in series [1] (setting [12]) it was 13.02; in series [1] (setting [13]) it was 20.56. Also, the degree of extraction in series [1] (setting [14]) came out at 27.82; in series [1] (setting [15]) it was 38.06; in series [1] (setting [16]) it was 47.19; in series [1] (setting [17]) it was 56.33; in series [1] (setting [18]), 63.45. In series [1], the “Fraction Transferred to Toluene” value is given as 0.64%.

For the compound `C=C(C)C(=O)O` [MAA, Methacrylic Acid], the “MAA extracted into the organic phase” value in series [3] is recorded as “roughly 80%”. The degree of extraction was 54.4 in series [1] (setting [8]); 58.85 in series [1] (setting [9]); 63.01 in series [1] (setting [10]); 67.25 in series [1] (setting [11]); 70.31 in series [1] (setting [12]); 74.28 in series [1] (setting [13]). Further, the degree of extraction in series [1] (setting [14]) amounted to 76.77; in series [1] (setting [15]), 79.42; in series [1] (setting [16]), 81.42; in series [1] (setting [17]), 83.02; in series [1] (setting [18]) it was 84.28. The “Fraction Transferred to Toluene” value in series [1] stood at 54.4%. Moreover, in series [4], the “K in [MAA]tol=K[MAA]^2aq” value is reported as 14.6. Moreover, in series [5] (0.1M MAA + 0.05M NaOH + itaconic acid to 0.1M), the “MAA extraction into toluene” value came to 44.7%. In addition, the “amount of MAA transferred into toluene” value in series [5] (after addition of 0.05M sodium hydroxide) was 26%; in series [5] (before NaOH addition), 48%. For the same compound, the “distribution coefficient for MAA, K” value in series [6] is reported as ~7.00. Also, the “Average % Transfer” value in series [7] (solvent Benzene) was 50.1%; in series [7] (solvent Cyclohexane), 26.9%; in series [7] (solvent Hexane), 27.6%; in series [7] (solvent MMA) it was 84.3%; in series [7] (solvent Mixed Xylenes), 45.3%; in series [7] (solvent Pentane), 28.3%. For the same compound, in series [7] (solvent Toluene), the “Average % Transfer” value came to 48.2%.

In the case of `C=CC(=O)O` [Acrylic acid], the “% extracted” value in series [2] (0 % Butanone in toluene) was 5.01%; in series [2] (10 % Butanone in toluene), 14.57%; in series [2] (20 % Butanone in toluene), 25.26%; in series [2] (30 % Butanone in toluene) it was 35.45%; in series [2] (40 % Butanone in toluene), 44.14%; in series [2] (50 % Butanone in toluene) it was 53.47%. Besides, the “% extracted” value in series [2] (60 % Butanone in toluene) was 57.31%; in series [2] (70 % Butanone in toluene), 63.39%; in series [2] (80 % Butanone in toluene) it was 67.47%; in series [2] (90 % Butanone in toluene), 70.04%; in series [2] (100 % Butanone) it was 65.56%.

For `C=C(CC(=O)O)C(=O)O` [IC, Itaconic Acid], the degree of extraction in series [1] (setting [8]) turned out to be 0; in series [1] (setting [9]) it was 0; in series [1] (setting [10]), 0.29; in series [1] (setting [11]), 0.81; in series [1] (setting [12]) it was 1.69; in series [1] (setting [13]), 2.89. For the same compound, the degree of extraction in series [1] (setting [14]) came out at 4.34; in series [1] (setting [15]), 6.56; in series [1] (setting [16]), 9.57; in series [1] (setting [17]), 13.1; in series [1] (setting [18]), 17.58. Moreover, the “Fraction Transferred to Toluene” value in series [1] came out at 0%.
